Laboratory results reported in patent US6498168B2, “Muscarinic antagonists” (Schering Corporation, priority 1995, dated 2002).
Structures can show the parent of a compound that is named as a salt. Where two headings read alike, the source gives them in different places.

Columns and labels:
[1] = biological target: T1, cloned human m1 muscarinic receptor (Homo sapiens, UniProt P11229); assay: Muscarinic binding activity, 3H-QNB, m1
T1 sequence (P11229 1-460): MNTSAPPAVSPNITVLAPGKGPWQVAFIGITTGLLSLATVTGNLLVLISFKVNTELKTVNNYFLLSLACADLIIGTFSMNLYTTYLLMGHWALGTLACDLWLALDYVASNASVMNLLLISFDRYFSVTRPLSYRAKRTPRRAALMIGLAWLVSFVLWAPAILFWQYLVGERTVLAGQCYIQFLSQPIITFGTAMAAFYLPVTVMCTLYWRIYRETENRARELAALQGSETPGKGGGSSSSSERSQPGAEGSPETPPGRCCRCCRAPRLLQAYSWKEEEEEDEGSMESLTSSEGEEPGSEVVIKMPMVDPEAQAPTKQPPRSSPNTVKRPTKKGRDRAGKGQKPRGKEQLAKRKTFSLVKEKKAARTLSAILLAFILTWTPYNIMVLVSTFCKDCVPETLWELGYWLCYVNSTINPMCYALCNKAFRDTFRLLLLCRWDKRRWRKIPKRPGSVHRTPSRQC
Protocol: (§1) The compound of interest is tested for its ability to inhibit binding to the cloned human m1, m2, m3, and m4 muscarinic receptor subtypes. The sources of receptors in these studies were membranes from stably transfected CHO cell lines which were expressing each of the receptor subtypes. Following growth, the cells were pelleted and subsequently homogenized using a Polytron in 50 volumes cold 10 mM Na/K phosphate buffer, pH 7.4 (Buffer B). The homgenates were centrifuged at 40,000×g for 20 minutes at 4° C. The resulting supernatants were discarded and the pellets were resuspended in Buffer B at a final concentration of 20 mg wet tissue/ml. These membranes were stored at −80° C. until utilized in the binding assays described below.
(§2) Binding to the cloned human muscarinic receptors was performed using ^3H-quinuclidinyl benzilate (QNB) (Watson et al., 1986). Briefly, membranes (approximately 8, 20, and 14 μg of protein assay for the m1, m2, and m4 containing membranes, respectively) were incubated with ^3H-QNB (final concentration of 100-200 pM) and increasing concentrations of unlabeled drug in a final volume of 2 ml at 25° C. for 90 minutes. Non-specific binding was assayed in the presence of 1 μM atropine. The incubations were terminated by vacuum filtration over GF/B glass fiber filters using a Skatron filtration apparatus and the filters were washed with cold 10 mM Na/K phosphate butter, pH 7.4. Scintillation cocktail was added to the filters and the vials were incubated overnight. The bound radioligand was quantified in a liquid scintillation counter (50% efficiency). The resulting data were analyzed for IC50 values (i.e. the concentration of compound required to inhibit binding by 50%) using the EBDA computer program (McPherson, 1985). Affinity values (Ki) were then determined using the following formula (Cheng and Prusoff, 1973); [formula]
(§3) To determine the degree of selectivity of a compound for binding the m2 receptor, the Ki value for m1 receptors was divided by the Ki value for m2 receptors. A higher ratio indicates a greater selectivity for binding the m2 muscarinic receptor.

[2] = biological target: T2, cloned human m2 muscarinic receptor (Homo sapiens, UniProt P08172); assay: Muscarinic binding activity, 3H-QNB, m2
T2 sequence (P08172 1-466): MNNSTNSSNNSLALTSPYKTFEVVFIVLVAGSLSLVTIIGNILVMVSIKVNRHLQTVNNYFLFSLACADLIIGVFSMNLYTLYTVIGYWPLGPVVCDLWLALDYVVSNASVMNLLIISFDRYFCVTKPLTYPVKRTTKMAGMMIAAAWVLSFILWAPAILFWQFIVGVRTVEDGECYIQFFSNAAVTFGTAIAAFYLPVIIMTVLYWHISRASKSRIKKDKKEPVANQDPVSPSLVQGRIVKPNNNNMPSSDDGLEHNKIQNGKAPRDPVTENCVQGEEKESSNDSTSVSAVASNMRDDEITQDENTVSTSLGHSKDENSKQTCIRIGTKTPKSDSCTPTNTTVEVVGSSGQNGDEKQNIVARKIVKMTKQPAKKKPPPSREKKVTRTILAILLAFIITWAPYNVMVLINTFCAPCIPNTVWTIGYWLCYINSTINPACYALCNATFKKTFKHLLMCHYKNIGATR
Protocol: as §1, §2, §3

[3] = biological target: T3, cloned human m4 muscarinic receptor (Homo sapiens, UniProt P08173); assay: Muscarinic binding activity, 3H-QNB, m4
T3 sequence (P08173 1-479): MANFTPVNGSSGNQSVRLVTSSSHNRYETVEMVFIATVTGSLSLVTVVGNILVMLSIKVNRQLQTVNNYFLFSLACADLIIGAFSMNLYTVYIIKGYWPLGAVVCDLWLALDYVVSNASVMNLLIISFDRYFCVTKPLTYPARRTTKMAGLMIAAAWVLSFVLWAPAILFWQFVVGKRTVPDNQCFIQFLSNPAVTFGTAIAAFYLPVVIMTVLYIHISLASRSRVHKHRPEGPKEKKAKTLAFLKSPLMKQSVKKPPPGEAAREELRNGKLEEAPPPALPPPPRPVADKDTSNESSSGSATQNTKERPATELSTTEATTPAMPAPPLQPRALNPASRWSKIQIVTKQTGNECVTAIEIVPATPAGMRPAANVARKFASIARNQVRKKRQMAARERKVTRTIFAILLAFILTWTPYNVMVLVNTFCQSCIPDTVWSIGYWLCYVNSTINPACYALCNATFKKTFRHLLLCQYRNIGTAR
Protocol: as §1, §2

[4] = system: ACh release from striatum; format: in vivo, rat; conditions: for Peak ACh release as % increase over Baseline: striatum of conscious rat
Protocol: Surgery: For these studies, male Sprague-Dawley Rats (250-350 g) were anesthetized with sodium pentobarbital (54 mg/kg, ip) and placed on a Kopf sterotaxic apparatus. The skull was exposed and drilled through to the dura at a point 0.2 mm anterior and 3.0 mm lateral to the bregma. At these coordinates, a guide cannula was positioned at the outer edge of the dura through the drilled opening, lowered perpendicularly to a depth of 2.5 mm, and permanently secured with dental cement to bone screws. Following the surgery, rats were given ampicillin (40 mg/kg, ip) and individually housed in modified cages. A recovery period of approximately 3 to 7 days was allowed before the microdialysis procedure was undertaken.
Microdialysis: All of the equipment and instrumentation used to conduct in vivo microdialysis was obtained from Bioanalytical Systems, Inc. (BAS). The microdialysis procedure involved the insertion through the guide cannula of a thin, needle-like perfusable probe (CMA/12,3 mm×0.5 mm) to a depth of 3 mm in striatum beyond the end of the guide. The probe was connected beforehand with tubing to a microinjection pump (CMA-/100). Rats were collared, tethered, and, following probe insertion, were placed in a large, clear, plexiglass bowl with litter material and access to food and water. The probe was perfused at 2 μl/min with Ringer's buffer (NaCl 147 mM; KCl 3.0 mM; CaCl2 1.2 mM; MgCl2 1.0 mM) containing 5.5 mM glucose, 0.2 mM L-ascorbate, and 1 μM neostigmine bromide at pH 7.4). To achieve stable baseline readings, microdialysis was allowed to proceed for 90 minutes prior to the collection of fractions. Fractions (20 μl) were obtained at 10 minute intervals over a 3 hour period using a refrigerated collector (CMA170 or 200). Four to five baseline fractions were collected, following which the drug or combination of drugs to be tested was administered to the animal. Upon completion of the collection, each rat was autopsied to determine accuracy of probe placement.
Acetylcholine (ACh) analysis: The concentration of ACh in collected samples of microdialysate was determined using HPLC/electrochemical detection. Samples were auto-injected (Waters 712 Refrigerated Sample Processor) onto a polymeric analytical HPLC column (BAS, MF-6150) and eluted with 50 mM Na2HPO4, pH 8.5. To prevent bacterial growth, Kathon CG reagent (0.005%) (BAS) was included in the mobile phase. Eluent from the analytical column, containing separated ACh and choline, was then immediately passed through an immobilized enzyme reactor cartridge (BAS, MF-6151) coupled to the column outlet. The reactor contained both acetylcholinesterase and choline oxidase covalently bound to a polymeric backbone. […] Data acquisition was carried out using an IBM Model 70 computer equipped with a microchannel IEEE board. Integration and quantification of peaks were accomplished using “Maxima” chromatography software (Waters Corporation). Total run time per sample was 11 minutes at a flow rate of 1 ml/min. Retention times for acetylcholine and choline were 6.5 and 7.8 minutes, respectively. To monitor and correct for possible changes in detector sensitivity during chromatography, ACh standards were included at the beginning, middle and end of each sample queue.
Increases in ACh levels are consistent with presynaptic m2 receptor antagonism.

ACh release from cortex = assay: Microdialysis, ACh release from cortex of conscious rat; format: in vivo
[5] = range given for the named group of compounds, read-out: Ki, nM, m1
[6] = range given for the named group of compounds, read-out: Ki, nM, m2
[7] = range given for the named group of compounds, read-out: Ki, nM, m4

Compound | melting point | Ki [1, 5] | Ki [2, 6] | Ki [3, 7] | also measured
CC(C)C(c1ccc(Oc2ncccn2)cc1)N1CCN(C2CCCCC2)CC1 (centres unmarked) [Compound 232] | – | – | – | – | Ki [1]: 2.1 to 224 nM; Ki [2]: 0.05 to 16.6 nM; Ki [3]: 0.33 to 36 nM
C=C(c1ccc(Sc2ccc(OC)cc2)cc1)C1CCN(C2CCCCC2)CC1 (as salt: hydrochloride) [Compound 302] | 227 to 230 °C | – | – | – | –
O=C(O)/C=C\C(=O)O.c1ccc(Oc2ccc(C3(N4CCN(C5CCCCC5)CC4)CCSCC3)cc2)cc1 | 137 to 139 °C | – | – | – | –
C=C(c1ccc(Sc2ccc(OC)cc2)cc1)C1CCN(C2CCCCC2)CC1 [Compound 302] | – | 2.1 to 224 nM | 0.05 to 16.6 nM | 0.33 to 36 nM | –
Nc1c2c(nc3ccccc13)CCCC2 [Tacrine, reference compound] | – | – | – | – | Peak ACh release as % increase over Baseline ([4]; Tacrine 3 mg/kg i.p. (FIG. 3)): 30 (FIG. 3) %
COC(=O)C(c1ccc(S(=O)(=O)c2ccc(OC)cc2)cc1)N1CCN(C2CCCCC2)CC1 (centres unmarked) [Compound 214] | – | 2.1 to 224 nM | 0.05 to 16.6 nM | 0.33 to 36 nM | –
COC(=O)C(C)(c1ccc([S+]([O-])c2ccc(OC)cc2)cc1)N1CCN(C2CCCCC2)CC1 (centres unmarked) [Compound 296] | – | 2.1 to 224 nM | 0.05 to 16.6 nM | 0.33 to 36 nM | –
c1cnc(Oc2ccc(C(C3CCCCC3)N3CCN(C4CCCCC4)CC3)cc2)nc1 (single isomer, unassigned) [227(−)] | – | 2.1 to 224 nM | 0.05 to 16.6 nM | 0.33 to 36 nM | –
COc1ccc([S+]([O-])c2ccc(C(C#N)N3CCN(C4CCCCC4)CC3)cc2)cc1 (single isomer, unassigned) [Compound 169] | – | – | – | – | Peak ACh release as % increase over Baseline (ACh release from cortex; 1 mg/kg i.p. (FIG. 1)): 75%; Peak ACh release as % increase over Baseline (ACh release from cortex; 10 mg/kg i.p. (FIG. 1)): 400%; Peak ACh release as % increase over Baseline (ACh release from cortex; 30 mg/kg i.p. (FIG. 1)): 1500%; increase in ACh release ([4]; oral administration, brain region not stated): significant increase; Peak ACh release as % increase over Baseline ([4]; 0.1 mg/kg i.p. (FIG. 2)): 10%; Peak ACh release as % increase over Baseline ([4]; 1 mg/kg i.p. (FIG. 2)): 30%; Peak ACh release as % increase over Baseline ([4]; 3 mg/kg i.p. (FIG. 2)): 125%; Peak ACh release as % increase over Baseline ([4]; 10 mg/kg i.p. (FIG. 2)): 150%; Peak ACh release as % increase over Baseline ([4]; 30 mg/kg i.p. (FIG. 2)): 270%; Peak ACh release as % increase over Baseline ([4]; Compound 169 1 mg/kg i.p. (FIG. 4)): 40 (FIG. 4) %
COc1ccc([S+]([O-])c2ccc(C(=O)C3CCN(C4CCCCC4)CC3)cc2)cc1 (centres unmarked) [Compound 305] | 125 °C | 2.1 to 224 nM | 0.05 to 16.6 nM | 0.33 to 36 nM | –
CC1CN(C2CCCCC2)CCN1C(C)c1ccc(Oc2ncccn2)cc1 (centres unmarked) [Compound 269] | – | 2.1 to 224 nM | 0.05 to 16.6 nM | 0.33 to 36 nM | –
COc1ccc(S(=O)(=O)c2ccc([C@@H](C)N3CCN(C4CCCCC4)C[C@H]3C)cc2)cc1 [Compound 667] | 241 to 242 °C | – | 0.03 to 0.48 nM | – | –
C=C(c1ccc([S+]([O-])c2ccc(OC)cc2)cc1)C1CCN(C2CCCCC2)CC1 (single isomer, unassigned) [Compound 301] | 141 to 142 °C | – | – | – | –
COc1ccc(S(=O)(=O)c2ccc([C@H](C)N3CCN(C4CCCCC4)C[C@H]3C)cc2)cc1 [Compound 656] | 227 to 230 °C | – | 0.03 to 0.48 nM | – | –
C=C(c1ccc([S+]([O-])c2ccc(OC)cc2)cc1)C1CCN(C2CCCCC2)CC1 (centres unmarked) [Compound 304] | – | 2.1 to 224 nM | 0.05 to 16.6 nM | 0.33 to 36 nM | –
C=C(c1ccc(S(=O)(=O)c2ccc(OC)cc2)cc1)C1CCN(C2CCN(C(=O)OCC)CC2)CC1 [Compound 760] | – | – | 0.03 to 0.48 nM | – | –
COc1ccc([S+]([O-])c2ccc(C(C)(C#N)N3CCN(C4CCCCC4)CC3)cc2)cc1 (centres unmarked) [Compound 289] | – | 2.1 to 224 nM | 0.05 to 16.6 nM | 0.33 to 36 nM | –
C=C(c1ccc([S+]([O-])c2ccc(OC)cc2)cc1)C1CCN(C2CCCCC2)CC1 (single isomer, unassigned) [Compound 300] | – | 2.1 to 224 nM | 0.05 to 16.6 nM | 0.33 to 36 nM | –
